Source: patent publication US12018157B2, “Tunable photoactivatable silicon rhodamine fluorophores” (SPIROCHROME AG, priority 2017, dated 2024)

Legend:
[1] = tested on: HaloTag in the nucleus of Hela cells; experiment: Live-cell imaging, localisation in Hela cells expressing HaloTag in the nucleus; assay type: cell-based
Experimental: (§1) Mammalian expression vectors with a SNAP-tag-NLS or SNAP-tag-Halo-tag-NLS fusion construct were available in the Johnsson lab. H2B-Halo was constructed from a pEBTet plasmid and the commercially available pCLIPf-H2B plasmid (NEB).
(§2) HeLa or U2OS cells were cultured in high-glucose DMEM media with GlutaMAX-1 (Life Technologies) supplemented with 10% FBS (Life Technologies) in a humidified 5% CO2 incubator at 37° C. Cells were split every 3-4 days or at confluency.
(§3) Cells were seeded on glass bottom 35 mm dishes (Mattek) one day before imaging. Transient transfection of cells was performed using Lipofectamine™ 2000 reagent (Life Technologies) according to the manufacturer's recommendations: DNA (2.5 μg) was mixed with OptiMEM I (100 μL, Life Technologies) and Lipofectamine™ 2000 (6 μL) was mixed with OptiMEM I (100 μL). The solutions were incubated for 5 min at room temperature. They were mixed and incubated for 20 min at room temperature. Prepared DNA-Lipofectamine complex was added to a glass bottom 35 mm dish with cells at 50-70% confluency. After 6 h incubation in a humidified 5% CO2 incubator at 37° C. the medium was changed to a fresh high-glucose DMEM medium with GlutaMAX-1 supplemented with 10% FBS. The cells were incubated for 1-2 days before imaging. […]

HaloTag-H2B fusion = experiment: Live-cell imaging, U2OS cells expressing HaloTag-H2B fusion; assay type: cell-based; conditions: 1 μM, 1 h (FIG. 3)
Experimental: FIG. 3 U2OS cells expressing HaloTag-H2B fusion stained with PA-SiR-Halo for 1 h (1 μM) and washed once for 3 min. Images were taken before and after irradiation with the 355 nm laser on a confocal microscope. Scale bar 30 μm.
as §1, §2
as §3, with “confluency.” for “confluency. After 6 h incubation in a humidified 5% CO2 incubator at 37° C. the medium was changed to a fresh high-glucose DMEM medium with GlutaMAX-1 supplemented with 10% FBS. The cells were incubated for 1-2 days before imaging.”

Tubulin = experiment: Live-cell imaging, localisation of PA-SiR-Tubulin to its target; assay type: cell-based
Experimental: as §2
(§4) Cells were stained with 1-3 μM PA-SiR (1-2 h, 37° C.), washed with phenol-red free DMEM medium (Life Technologies) or PBS (once for 3 min, 37° C.) and imaged in the same medium.
(§5) Imaging was performed using a Leica DMI6000B microscope equipped with a Hamamatsu-C9100 EM-CCD camera and a HCX PL APO 100.0×1.47 Oil objective and a standard Cy5 filter set was used. Activation of the fluorophores was achieved by irradiation with the DAPI-channel at 100% for 10-20 s. The same settings (exposure time=150 ms, gain=3, EM-gain=800, transmission=12.5%) were used for the images taken before and after UV irradiation in the SiR-channel.
(§6) Confocal imaging was performed on a Leica DMi8 microscope equipped with a Leica TCS SP8 X scanhead, a white light laser, a 355 nm laser (Coherent) and HC PL APO 63×1.47 Oil objective. The 355 nm laser was used to perform the photoactivation.

[2] = tested on: SNAP-tag in the nucleus of Hela cells; experiment: Live-cell imaging, localisation in Hela cells expressing SNAP-tag in the nucleus; assay type: cell-based
Experimental: as §1, §2, §3

[3] = UV-Vis analysis / full absorbance spectra of PA-SiR 2a before and after UV irradiation; assay type: physicochemical; conditions: PBS
Experimental: PBS solutions of different pH were adjusted by addition of HCl or NaOH solution using a pH meter.
Solutions were prepared in PBS ([…] or 20 μM) at the indicated pH. UV irradiation was performed outside of the spectrometer for the indicated period (T). Absorbance spectra were recorded using a SHIMADZU UV spectrophotometer (UV-1800) and 1 cm fluorescence quartz cuvettes (Hellma Analytics). Spectra were recorded every minute.
Solutions of 2a in PBS (10 μM) at the desired pH were prepared in 1 cm fluorescence quartz cuvette (Hellma Analytics). UV irradiation was performed directly inside the spectrophotometer during the running experiment at a fixed distance (F, single flash). Kinetic absorbance measurements were recorded on a Perkin-Elmer Lambda 950 spectrophotometer at 646 nm.

Actin = experiment: Live-cell imaging, localisation of PA-SiR-Actin to its target; assay type: cell-based
Experimental: as §2, §4, §5, §6

DNA = experiment: Live-cell imaging, localisation of PA-SiR-DNA to its target; assay type: cell-based
Experimental: as §2, §4, §5, §6

Structure (SMILES): CN(C)c1ccc2c(c1)[Si](C)(C)c1cc(N(C)C)ccc1C2=CCCC(=O)NCCOCCOCCCCCCCl [PA-SiR-Halo, 4-(3,7-Bis(dimethylamino)-5,5-dimethyldibenzo[b,e]silin-10(5H)-ylidene)-N-(2-(2-((6-chlorohexyl)oxy)ethoxy)ethyl)butanamide]
- localisation to HaloTag in the nucleus [1]: successfully localised
- localisation to H2B (HaloTag-H2B fusion): successfully localised

Structure (SMILES): CC(=O)O[C@@]12CO[C@@H]1C[C@H](O)[C@@]1(C)C(=O)[C@H](O)C3=C(C)[C@@H](OC(=O)C(O)C(NC(=O)CCCCCCCNC(=O)CCC=C4c5ccc(N(C)C)cc5[Si](C)(C)c5cc(N(C)C)ccc54)c4ccccc4)C[C@@](O)([C@@H](OC(=O)c4ccccc4)[C@H]21)C3(C)C (stereo partly drawn) [PA-SiR-Tubulin, (2αR,4S,4αS,6R,9S,11S,12S,12αR,12βS)-12β-Acetoxy-9-((3-(8-(4-(3,7-bis(dimethylamino)-5,5-dimethyldibenzo[b,e]silin-10(5H)-ylidene)butanamido)octanamido)-2-hydroxy-3-phenylpropanoyl)oxy)-4,6,11-trihydroxy-4α,8,13,13-tetramethyl-5-oxo-2α,3,4,4α,5,6,9,10,11,12,12α,12β-dodecahydro-1H-7,11-methanocyclodeca[3,4]benzo[1,2-β]oxet-12-yl benzoate]
- localisation to target (tubulin) (Tubulin): localised to their targets

Structure (SMILES): CN(C)c1ccc2c(c1)[Si](C)(C)c1cc(N(C)C)ccc1C2=CCCC(=O)NCc1ccc(COc2nc(N)nc3[nH]cnc23)cc1 [PA-SiR-SNAP, N-(4-(((2-Amino-9H-purin-6-yl)oxy)methyl)benzyl)-4-(3,7-bis(dimethylamino)-5,5-dimethyldibenzo[b,e]silin-10(5H)-ylidene)butanamide]
- localisation to SNAP-tag in the nucleus [2]: successfully localised

Structure (SMILES): CN(C)c1ccc2c(c1)[Si](C)(C)c1cc(N(C)C)ccc1C2=CCCC(=O)O [2a, 4-(3,7-Bis(dimethylamino)-5,5-dimethyldibenzo[b,e]silin-10(5H)-ylidene)butanoicacid]
- absorbance (before photoactivation) [3]: only absorbance in the UV-range

Structure (SMILES): C/C1=C\CC[C@H](C)OC(=O)C[C@H](c2ccc(O)cc2)NC(=O)[C@@H](Cc2cc3ccccc3[nH]2)N(C)C(=O)[C@H](CCCCNC(=O)CCC=C2c3ccc(N(C)C)cc3[Si](C)(C)c3cc(N(C)C)ccc32)NC(=O)[C@@H](C)C1 [PA-SiR-Actin, N-(4-((4R,7R,10S,13S,19S,E)-7-((1H-Indol-2-yl)methyl)-4-(4-hydroxyphenyl)-8,13,15,19-tetramethyl-2,6,9,12-tetraoxo-1-oxa-5,8,11-triazacyclononadec-15-en-10-yl)butyl)-4-(3,7-bis(dimethylamino)-5,5-dimethyldibenzo[b,e]silin-10(5H)-ylidene)butanamide]
- localisation to target (actin) (Actin): localised to their targets

Structure (SMILES): CN1CCN(c2ccc3nc(-c4ccc5nc(-c6ccc(OCCCCNC(=O)CCC=C7c8ccc(N(C)C)cc8[Si](C)(C)c8cc(N(C)C)ccc87)cc6)[nH]c5c4)[nH]c3c2)CC1 [PA-SiR-DNA, 4-(3,7-Bis(dimethylamino)-5,5-dimethyldibenzo[b,e]silin-10(5H)-ylidene)-N-(4-(4-(6-(4-methylpiperazin-1-yl)-1H,3′H-[2,5′-bibenzo[d]imidazol]-2′-yl)henoxy)butyl)butanamide]
- localisation to target (DNA) (DNA): localised to their targets
